Values quoted from earlier work in US7291352B2 (HerbalScience LLC, priority 2001, dated 2007).

System: gamma-aminobutyric acid (GABA) receptor uptake
Details: in micromolar concentrations

SMILES | inhibition of GABA receptor uptake
CN1CCC=C(C(=O)O)C1 [arecaidine] | inhibit
O=C(O)C1=CCCNC1 [guvacine] | inhibit
